Measurements published in US12364733B1, “Method for treating septic shock” (Inotrem, priority 2018, dated 2025).

Tested on: septic shock patients
Assay: Phase IIa clinical trial with nangibotide in septic shock patients: SOFA score evolution
Assay type: in vivo, human
Method: This was a randomized, double-blind, two-stage, placebo-controlled study. As described in FIG. 7, the study was composed of 2 stages with a similar treatment regimen, in which 0.3, 1.0 or 3.0 mg/kg/h of nangibotide (corresponding to peptide LR12, having an amino acid sequence as set forth in SEQ ID NO: 9, also known as motrem) was tested versus placebo. All patients with a diagnosis of septic shock were considered for study participation. All potential study patients underwent standard care management procedures. Patients with evidence of septic shock according to the Sepsis-3 definition (Singer et al, JAMA 2016) were considered for inclusion (i.e., patients suffering from sepsis and having (i) persisting hypotension requiring vasopressors to maintain their mean arterial pressure ≥65 mm Hg and (ii) a serum lactate level >2 mmol/L (18 mg/dL) despite adequate volume resuscitation).
After screening for eligibility, patients were randomized to one of the treatment arms. Then, they received either a 5 mg/kg loading dose of nangibotide over 15 minutes followed by a continuous intravenous (i.v.) infusion of nangibotide or a matching placebo on top of standard of care. Treatment with study drug was initiated as early as possible, but no later than 24 hours after the onset of septic shock, defined by the start of vasopressor therapy. Patients were treated until 12 (±2) hours after the resolution of their septic shock (defined as vasopressor withdrawal) with a maximum treatment duration of 5 days (120 hours).
Adverse events (AEs) were coded using the MedDRA dictionary version 18.1. Treatment-emergent adverse events (TEAEs) were summarized and listed. Analysis was performed in 49 septic shock patients. The demographic and baseline characteristics were summarized in a descriptive fashion within each population: categorical variables were summarized by contingency tables (frequencies and percentages). sTREM-1 levels at day 1 were also described (mean, standard deviation, standard error, median, quartiles and range, minimum and maximum values). Mortality rates were reported by frequency and percentage. For continuous endpoints, i.e., the sequential organ failure assessment (SOFA), missing data were imputed using LOCF (Last Observation Carry-Forward). For time-to-event analyses, i.e., duration of invasive mechanical ventilation (IMV), duration of continuous renal replacement therapy (CRRT), survival, censored data techniques were utilized. In addition, a sensitivity analysis of time to event data (except survival) was performed using censoring at maximum limit for the corresponding observation period (i.e., either day 28 or day 90). […] The following comparisons were made: each nangibotide dose arm to placebo, all nangibotide doses combined versus placebo, and dose-response using an ordinal trend test. Exploratory composite endpoint: incidence (number and proportion) of patients alive at day 28 and free of vasopressor, free of IMV and free of CRRT were summarized by treatment and compared between treatments with a Fisher's exact test. For pharmacodynamic markers, log transformed data were represented as percentage change from baseline at day 5 or End of Infusion (EOI) if end of infusion was stopped before day 5. […] “All nangibotide” refers to analyses obtained by pooling data from 0.3, 1 and 3 mg/kg/h nangibotide-treated groups.

[1] = patients with high sTREM-1 at baseline (above median 433 pg/mL), Day 1, 0.3 mg/kg/h
[2] = patients with high sTREM-1 at baseline (above median 433 pg/mL), Day 1, 1.0 mg/kg/h
[3] = patients with high sTREM-1 at baseline (above median 433 pg/mL), Day 1, 3.0 mg/kg/h
[4] = patients with high sTREM-1 at baseline (above median 433 pg/mL), Day 1, all nangibotide doses pooled
[5] = patients with high sTREM-1 at baseline (above median 433 pg/mL), Day 2, 0.3 mg/kg/h
[6] = patients with high sTREM-1 at baseline (above median 433 pg/mL), Day 2, 1.0 mg/kg/h
[7] = patients with high sTREM-1 at baseline (above median 433 pg/mL), Day 2, 3.0 mg/kg/h
[8] = patients with high sTREM-1 at baseline (above median 433 pg/mL), Day 2, all nangibotide doses pooled
[9] = patients with high sTREM-1 at baseline (above median 433 pg/mL), Day 3, 0.3 mg/kg/h
[10] = patients with high sTREM-1 at baseline (above median 433 pg/mL), Day 3, 1.0 mg/kg/h
[11] = patients with high sTREM-1 at baseline (above median 433 pg/mL), Day 3, 3.0 mg/kg/h
[12] = patients with high sTREM-1 at baseline (above median 433 pg/mL), Day 3, all nangibotide doses pooled
[13] = patients with high sTREM-1 at baseline (above median 433 pg/mL), Day 4, 0.3 mg/kg/h
[14] = patients with high sTREM-1 at baseline (above median 433 pg/mL), Day 4, 1.0 mg/kg/h
[15] = patients with high sTREM-1 at baseline (above median 433 pg/mL), Day 4, 3.0 mg/kg/h
[16] = patients with high sTREM-1 at baseline (above median 433 pg/mL), Day 4, all nangibotide doses pooled
[17] = patients with high sTREM-1 at baseline (above median 433 pg/mL), Day 5, 1.0 mg/kg/h
[18] = patients with low sTREM-1 at baseline (below median 433 pg/mL), Day 1, 0.3 mg/kg/h
[19] = patients with low sTREM-1 at baseline (below median 433 pg/mL), Day 1, 1.0 mg/kg/h
[20] = patients with low sTREM-1 at baseline (below median 433 pg/mL), Day 1, 3.0 mg/kg/h
[21] = patients with low sTREM-1 at baseline (below median 433 pg/mL), Day 1, all nangibotide doses pooled
[22] = patients with low sTREM-1 at baseline (below median 433 pg/mL), Day 2, 0.3 mg/kg/h
[23] = patients with low sTREM-1 at baseline (below median 433 pg/mL), Day 2, 1.0 mg/kg/h
[24] = patients with low sTREM-1 at baseline (below median 433 pg/mL), Day 2, 3.0 mg/kg/h
[25] = patients with low sTREM-1 at baseline (below median 433 pg/mL), Day 2, all nangibotide doses pooled
[26] = patients with low sTREM-1 at baseline (below median 433 pg/mL), Day 3, 0.3 mg/kg/h
[27] = patients with low sTREM-1 at baseline (below median 433 pg/mL), Day 3, 1.0 mg/kg/h

nangibotide (LQEEDAGEYGCM; TLT-1 peptide)
nangibotide efficacy by baseline sTREM-1 subgroup (patients with baseline sTREM-1 above the median (above 433 pg/mL), pharmacodynamic parameters, medical support, SOFA score): more pronounced | SOFA score evolution (change versus baseline, LOCF), LSMean (SE) [1]: 0.16 (0.60) | SOFA score, estimated difference (SE) vs. placebo [1]: 0.14 (0.90) | SOFA score evolution (change versus baseline, LOCF), LSMean (SE) [2]: −0.50 (0.59) | SOFA score, estimated difference (SE) vs. placebo [2]: −0.52 (0.89) | SOFA score evolution (change versus baseline, LOCF), LSMean (SE) [3]: −0.38 (0.51) | SOFA score, estimated difference (SE) vs. placebo [3]: −0.40 (0.84) | SOFA score evolution (change versus baseline, LOCF), LSMean (SE) [4]: −0.24 (0.33) | SOFA score, estimated difference (SE) vs. placebo [4]: −0.26 (0.74) | SOFA score evolution (change versus baseline, LOCF), LSMean (SE) [5]: −1.52 (0.80) | SOFA score, estimated difference (SE) vs. placebo [5]: −1.14 (1.21) | SOFA score evolution (change versus baseline, LOCF), LSMean (SE) [6]: −2.00 (0.80) | SOFA score, estimated difference (SE) vs. placebo [6]: −1.63 (1.19) | SOFA score evolution (change versus baseline, LOCF), LSMean (SE) [7]: −0.50 (0.69) | SOFA score, estimated difference (SE) vs. placebo [7]: −0.13 (1.13) | SOFA score evolution (change versus baseline, LOCF), LSMean (SE) [8]: −1.34 (0.44) | SOFA score, estimated difference (SE) vs. placebo [8]: −0.97 (1.00) | SOFA score evolution (change versus baseline, LOCF), LSMean (SE) [9]: −2.73 (0.89) | SOFA score, estimated difference (SE) vs. placebo [9]: −2.64 (1.34) | SOFA score evolution (change versus baseline, LOCF), LSMean (SE) [10]: −2.00 (0.89) | SOFA score, estimated difference (SE) vs. placebo [10]: −1.90 (1.32) | SOFA score evolution (change versus baseline, LOCF), LSMean (SE) [11]: −0.39 (0.77) | SOFA score, estimated difference (SE) vs. placebo [11]: −0.30 (1.25) | SOFA score evolution (change versus baseline, LOCF), LSMean (SE) [12]: −1.71 (0.49) | SOFA score, estimated difference (SE) vs. placebo [12]: −1.61 (1.11) | SOFA score evolution (change versus baseline, LOCF), LSMean (SE) [13]: −3.22 (0.94) | SOFA score, estimated difference (SE) vs. placebo [13]: −2.70 (1.41) | SOFA score evolution (change versus baseline, LOCF), LSMean (SE) [14]: −1.83 (0.93) | SOFA score, estimated difference (SE) vs. placebo [14]: −1.31 (1.39) | SOFA score evolution (change versus baseline, LOCF), LSMean (SE) [15]: −0.51 (0.81) | SOFA score, estimated difference (SE) vs. placebo [15]: 0.00 (1.31) | SOFA score evolution (change versus baseline, LOCF), LSMean (SE) [16]: −1.85 (0.52) | SOFA score, estimated difference (SE) vs. placebo [16]: −1.34 (1.16) | SOFA score evolution (change versus baseline, LOCF), LSMean (SE) (patients with high sTREM-1 at baseline (above median 433 pg/mL), Day 5, 0.3 mg/kg/h): −3.20 (0.90) | SOFA score, estimated difference (SE) vs. placebo (patients with high sTREM-1 at baseline (above median 433 pg/mL), Day 5, 0.3 mg/kg/h, 0.3 mg/kg): −2.85 (1.36) | SOFA score, estimated difference (SE) vs. placebo (patients with high sTREM-1 at baseline (above median 433 pg/mL), Day 5, 0.3 mg/kg/h, listed as nangibotide, 0.3 mg/kg): −2.85 | SOFA score evolution (change versus baseline, LOCF), LSMean (SE) [17]: −1.83 (0.90) | SOFA score, estimated difference (SE) vs. placebo [17]: −1.48 (1.34) | SOFA score evolution (change versus baseline, LOCF), LSMean (SE) (patients with high sTREM-1 at baseline (above median 433 pg/mL), Day 5, 3.0 mg/kg/h): −0.51 (0.78) | SOFA score, estimated difference (SE) vs. placebo (patients with high sTREM-1 at baseline (above median 433 pg/mL), Day 5, 3.0 mg/kg/h, 3 mg/kg): −0.16 (1.27) | SOFA score, estimated difference (SE) vs. placebo (patients with high sTREM-1 at baseline (above median 433 pg/mL), Day 5, 3.0 mg/kg/h, listed as nangibotide, 3 mg/kg): −0.16 | SOFA score evolution (change versus baseline, LOCF), LSMean (SE) (patients with high sTREM-1 at baseline (above median 433 pg/mL), Day 5, all nangibotide doses pooled): −1.85 (0.50) | dose response of SOFA score difference vs. placebo (patients with high sTREM-1 at baseline, 0.3 vs 3 mg/kg/h): inverse dose response | SOFA score evolution (change versus baseline, LOCF), LSMean (SE) [18]: −1.40 (0.80) | SOFA score, estimated difference (SE) vs. placebo [18]: 0.29 (1.13) | SOFA score evolution (change versus baseline, LOCF), LSMean (SE) [19]: −0.01 (0.88) | SOFA score, estimated difference (SE) vs. placebo [19]: 1.67 (1.20) | SOFA score evolution (change versus baseline, LOCF), LSMean (SE) [20]: −0.35 (1.06) | SOFA score, estimated difference (SE) vs. placebo [20]: 1.33 (1.33) | SOFA score evolution (change versus baseline, LOCF), LSMean (SE) [21]: −.059 (0.53) | SOFA score, estimated difference (SE) vs. placebo [21]: 1.10 (0.96) | SOFA score evolution (change versus baseline, LOCF), LSMean (SE) [22]: −2.99 (0.92) | SOFA score, estimated difference (SE) vs. placebo [22]: −0.86 (1.30) | SOFA score evolution (change versus baseline, LOCF), LSMean (SE) [23]: −1.62 (1.02) | SOFA score, estimated difference (SE) vs. placebo [23]: 0.51 (1.38) | SOFA score evolution (change versus baseline, LOCF), LSMean (SE) [24]: −1.87 (1.22) | SOFA score, estimated difference (SE) vs. placebo [24]: 0.26 (1.53) | SOFA score evolution (change versus baseline, LOCF), LSMean (SE) [25]: −2.16 (0.61) | SOFA score, estimated difference (SE) vs. placebo [25]: −0.03 (1.11) | SOFA score evolution (change versus baseline, LOCF), LSMean (SE) [26]: −2.68 (1.02) | SOFA score, estimated difference (SE) vs. placebo [26]: −0.57 (1.44) | SOFA score evolution (change versus baseline, LOCF), LSMean (SE) [27]: −1.51 (1.13) | SOFA score, estimated difference (SE) vs. placebo [27]: 0.61 (1.53)
